Source: patent US20250011456A1, “ANTIBODIES AGAINST CD14 AND USES THEREOF” (Villanelle Life Science Inc, priority 2023, published 2025)
Where “and” joins values, the source holds several entries; their conditions need not be identical. Identical values can stand only once.

Experiments:
[1] = system: CD14 positive recurrent bladder cancer patient-derived xenograft (PDX); assay: Anti-CD14 IgG1/IgG4 with or without cisplatin, tumor treatment in PDX mice (tumor length, width, volume, tumor weight; Example 6); assay type: in vivo; conditions: for Tumor Length / Tumor Volume / Tumor Width: Cisplatin 4 mg/kg i.v. (C. Ex. 2), PDX mice 1-6
Text: After removing the primary tumor tissue from the patient, the tissue was temporarily placed in a complete culture medium containing RPMI1640 (Gibco Roswell Park Memorial Institute 1640 Media)+PS (penicillin and streptomycin)+10% FBS (Fetal bovine serum). The tissue was then transported to a sterile operating room within an SPF-grade (Specific Pathogen Free) animal facility. The tumor tissue was cut to an appropriate size (5 millimeters (mm) in diameter). Severely immunodeficient NSG (NOD scid gamma mouse) mice were anesthetized using an isoflurane respirator. The tumor was transplanted subcutaneously into the right rib area through surgery. When the tumor volume reached 1 cm^3, it was passaged following the same procedure, and after expanding for three generations, the tumor became stable for use in formal experiments. During the experiment, passaging and expansion were performed as needed. When the tumor volume reached 100 mm^3, the mice were divided into groups according to the experimental requirements and treated with drugs.
The IgG4 tested is the original version of Atibuclimab.
Drug administration on the PDX mice was performed intravenously.

[2] = Mouse weight under the treatment regimens of Example 6 (PDX mice); conditions: Cisplatin 4 mg/kg i.v. (C. Ex. 2), PDX mice 1-6
Method: For these experiments, eight (8) treatment groups for PDX mice were set up: control IgG group (C.Ex. 1), single cisplatin group (4 mg/kg; C.Ex. 2), single anti-CD14-IgG1 group (5 mg/kg; Ex. 1), single anti-CD14-IgG4 (5 mg/kg; Ex. 2), combined cisplatin and anti-CD14-IgG1 group (4 mg/kg+1.5 mg/kg; Ex. 3), combined cisplatin and anti-CD14-IgG4 group (4 mg/kg+1.5 mg/kg; Ex. 4), combined cisplatin and anti-CD14-IgG1 group (4 mg/kg+5 mg/kg; Ex. 5), and combined cisplatin and anti-CD14-IgG4 group (4 mg/kg+5 mg/kg; Ex. 6). […] When cisplatin was used in these experiments, the cisplatin was used at a dose of 4 mg/kg. “C.Ex.” refers to comparative examples and “Ex.” refers to examples of embodiments of the present disclosure. The control is a non-specific IgG1 having two identical heavy chains and two identical light chains. The non-specific IgG1 has no binding affinity to the antigen.
Drug administration on the PDX mice was performed intravenously. Drug administration was performed on days 0, 4, 7, 11, 14, 18, 21, 25, and 28. Measurements of length, width, volume, and weight were performed prior to the drug administration on day 0, 4, 7, 11, 14, 18, 21, 25, and 28. The tumors were present on the skin of the mice. A ruler was used to measure the length and the width. The tumor volume was calculated by volume=½(length×width^2). The weight of the mouse was measured by placing the mouse on a scale and weighing. Tumor weight was measured by removing the tumor from the mouse and weighing on a scale.

N.N.[Cl][Pt][Cl] [Cisplatin, cisplatin, reference compound]
Tumor Length ([1]; Day 0): 6.73 mm and 6.19 mm and 6.27 mm and 6.28 mm and 7.76 mm and 7.8 mm | Tumor Volume ([1]; Day 0): 60.66 mm^3 and 92.72 mm^3 and 86.02 mm^3 and 73.84 mm^3 and 94.74 mm^3 and 109.53 mm^3 | Tumor Width ([1]; Day 0): 4.15 mm and 5.35 mm and 5.12 mm and 4.74 mm and 4.83 mm and 5.18 mm | Tumor Length ([1]; Day 4): 6.66 mm and 6.27 mm and 5.94 mm and 5.93 mm and 6.62 mm and 5.98 mm | Tumor Volume ([1]; Day 4): 87.83 mm^3 and 103.64 mm^3 and 106.38 mm^3 and 105.48 mm^3 and 165.90 mm^3 and 96.75 mm^3 | Tumor Width ([1]; Day 4): 5.02 mm and 5.62 mm and 5.85 mm and 5.83 mm and 6.92 mm and 5.56 mm | Tumor Length ([1]; Day 7): 6.33 mm and 6.99 mm and 6.68 mm and 7.3 mm and 7.66 mm and 7.34 mm | Tumor Volume ([1]; Day 7): 97.32 mm^3 and 111.46 mm^3 and 139.19 mm^3 and 144.96 mm^3 and 184.82 mm^3 and 147.18 mm^3 | Tumor Width ([1]; Day 7): 5.42 mm and 5.52 mm and 6.31 mm and 6.16 mm and 6.79 mm and 6.19 mm | Tumor Length ([1]; Day 11): 8.7 mm and 6.68 mm and 7.84 mm and 8.41 mm and 7.57 mm and 7.94 mm | Tumor Width ([1]; Day 11): 6.55 mm and 6.18 mm and 6.08 mm and 7.57 mm and 7.19 mm and 5.43 mm | Tumor Length ([1]; Day 14): 7.16 mm and 8.08 mm and 7.68 mm and 8.19 mm and 9.8 mm and 9.87 mm | Tumor Volume ([1]; Day 14): 191.56 mm^3 and 209.57 mm^3 and 206.05 mm^3 and 280.52 mm^3 and 299.36 mm^3 and 256.73 mm^3 | Tumor Width ([1]; Day 14): 7.15 mm and 7.04 mm and 7.16 mm and 8.09 mm and 7.64 mm and 7.05 mm | Tumor Length ([1]; Day 18): 9.5 mm and 10.13 mm and 8.93 mm and 9.14 mm and 8.11 mm and 9.96 mm | Tumor Volume ([1]; Day 18): 359.20 mm^3 and 359.95 mm^3 and 306.62 mm^3 and 367.06 mm^3 and 235.57 mm^3 and 353.91 mm^3 | Tumor Width ([1]; Day 18): 8.5 mm and 8.24 mm and 8.1 mm and 8.76 mm and 7.45 mm | Tumor Length ([1]; Day 21): 9.64 mm and 9.79 mm and 9.77 mm and 10.69 mm and 9.27 mm and 9.57 mm | Tumor Volume ([1]; Day 21): 461.07 mm^3 and 334.49 mm^3 and 398.65 mm^3 and 549.42 mm^3 and 378.25 mm^3 and 399.39 mm^3 | Tumor Width ([1]; Day 21): 9.56 mm and 8.08 mm and 8.83 mm and 9.91 mm and 8.93 mm | Tumor Length ([1]; Day 25): 10.14 mm and 11.63 mm and 10.89 mm and 10.35 mm and 10.8 mm and 9.29 mm | Tumor Volume ([1]; Day 25): 447.20 mm^3 and 648.21 mm^3 and 545.11 mm^3 and 447.56 mm^3 and 545.04 mm^3 and 354.58 mm^3 | Tumor Width ([1]; Day 25): 9.18 mm and 10.32 mm and 9.78 mm and 9.09 mm and 9.82 mm and 8.54 mm | Tumor Length ([1]; Day 28): 10.94 mm and 11.95 mm and 11.36 mm and 9.95 mm and 11.27 mm and 11.26 mm | Tumor Volume ([1]; Day 28): 472.03 mm^3 and 644.29 mm^3 and 617.31 mm^3 and 399.59 mm^3 and 624.50 mm^3 and 680.98 mm^3 | Tumor Width ([1]; Day 28): 9.08 mm and 10.15 mm and 10.19 mm and 8.76 mm and 10.29 mm and 10.75 mm | Tumor weight after 28 days ([1]; Cisplatin (4 mg/kg), C. Ex. 2, per mouse 1-6): 0.556 grams and 0.459 grams and 0.538 grams and 0.669 grams and 0.566 grams and 0.419 grams | tumor suppression rate ([1]; single cisplatin 4 mg/kg (C.Ex. 2), after 28 days, compared to the control group): about 50% | Mouse Weight ([2]; Day 0): 20.24 g and 20.99 g and 19.91 g and 20.78 g and 20.29 g and 20.61 g | Mouse Weight ([2]; Day 4): 20.91 g and 20.32 g and 20.42 g and 20.81 g and 20.93 g and 19.35 g | Mouse Weight ([2]; Day 7): 19.77 g and 20.8 g and 21.42 g and 19.96 g and 20.93 g and 20.38 g | Mouse Weight ([2]; Day 11): 21.17 g and 21.76 g and 20.58 g and 20.08 g and 21.59 g and 19.94 g | Mouse Weight ([2]; Day 14): 21.09 g and 21.3 g and 21.38 g and 21.68 g and 20.56 g and 22.59 g | Mouse Weight ([2]; Day 18): 21.17 g and 21.02 g and 21.25 g and 21.23 g and 21.03 g and 21.58 g | Mouse Weight ([2]; Day 21): 22.54 g and 22.44 g and 22.47 g and 22.85 g and 22.23 g and 22.65 g | Mouse Weight ([2]; Day 25): 25.05 g and 24.06 g and 22.26 g and 23.7 g and 25.49 g and 22.66 g | Mouse Weight ([2]; Day 28): 24.11 g and 25.57 g and 24.32 g and 23.69 g and 24.47 g and 25.73 g
